# Biological target: T1, NTCP (Homo sapiens, UniProt Q14973)
# T1 sequence (Q14973 1-349): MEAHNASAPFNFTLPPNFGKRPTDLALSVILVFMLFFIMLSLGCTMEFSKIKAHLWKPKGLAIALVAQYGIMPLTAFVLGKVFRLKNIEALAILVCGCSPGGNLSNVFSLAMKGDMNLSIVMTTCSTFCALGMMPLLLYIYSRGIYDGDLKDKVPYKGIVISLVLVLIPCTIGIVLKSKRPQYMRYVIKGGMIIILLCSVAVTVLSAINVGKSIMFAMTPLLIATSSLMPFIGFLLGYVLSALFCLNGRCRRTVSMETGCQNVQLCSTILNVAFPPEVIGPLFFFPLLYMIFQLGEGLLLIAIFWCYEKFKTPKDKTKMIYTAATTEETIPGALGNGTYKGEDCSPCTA
# Experiment: [3H]-TCA uptake assay (NTCP inhibition)
# Format: cell-based
# Conditions: IC50, given as a range, marked * (asterisk not explained)
# Procedure, shortened: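 PTH and HepG2-NTCP cells kept 24 h in PMM to induce NTCP, then exposed 2 h to test compounds or DMSO. Uptake of 1 μM [3H]-taurocholate in Na+ Ringer's buffer (145 mM Na) ran 15 min at 37° C. Cells washed, lysed in 1% Triton X-100, and radioactivity counted by liquid scintillation.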
row,Structure (SMILES),IC50
1,CCC1NC(=O)C(C2OC(SCc3ccccc3Cl)CC2C)N(C)C(=O)C(C(C)C)N(C)C(=O)C(CC(C)C)N(C)C(=O)C(CC(C)C)N(C)C(=O)C(C)NC(=O)C(C)NC(=O)C(CC(C)C)N(C)C(=O)C(C(C)C)NC(=O)C(CC(C)C)N(C)C(=O)CN(C)C1=O (centres unmarked) [Compound 84A-s],1 to 100 µM
2,CCC1NC(=O)C(C2OC(SCc3ccc(OCCN(C)C)cc3)CC2C)N(C)C(=O)C(C(C)C)N(C)C(=O)C(CC(C)C)N(C)C(=O)C(CC(C)C)N(C)C(=O)C(C)NC(=O)C(C)NC(=O)C(CC(C)C)N(C)C(=O)C(C(C)C)NC(=O)C(CC(C)C)N(C)C(=O)CN(C)C1=O (centres unmarked) [Compound 87A-s],1 to 100 µM
3,CCC1NC(=O)C(C2OC(SCc3cccc(Cl)c3OC)CC2C)N(C)C(=O)C(C(C)C)N(C)C(=O)C(CC(C)C)N(C)C(=O)C(CC(C)C)N(C)C(=O)C(C)NC(=O)C(C)NC(=O)C(CC(C)C)N(C)C(=O)C(C(C)C)NC(=O)C(CC(C)C)N(C)C(=O)CN(C)C1=O (centres unmarked) [Compound 88A-s],1 to 100 µM
4,CCC1NC(=O)C(C2OC(SCc3ccc(Cl)cc3Cl)CC2C)N(C)C(=O)C(C(C)C)N(C)C(=O)C(CC(C)C)N(C)C(=O)C(CC(C)C)N(C)C(=O)C(C)NC(=O)C(C)NC(=O)C(CC(C)C)N(C)C(=O)C(C(C)C)NC(=O)C(CC(C)C)N(C)C(=O)CN(C)C1=O (centres unmarked) [Compound 89A-s],1 to 100 µM
5,CCC1NC(=O)C(C2OC(SCc3c(Cl)cccc3Cl)CC2C)N(C)C(=O)C(C(C)C)N(C)C(=O)C(CC(C)C)N(C)C(=O)C(CC(C)C)N(C)C(=O)C(C)NC(=O)C(C)NC(=O)C(CC(C)C)N(C)C(=O)C(C(C)C)NC(=O)C(CC(C)C)N(C)C(=O)CN(C)C1=O (centres unmarked) [Compound 90A-s],1 to 100 µM
6,CCC1NC(=O)C(C2OC(SCc3cc(Cl)cc(Cl)c3)CC2C)N(C)C(=O)C(C(C)C)N(C)C(=O)C(CC(C)C)N(C)C(=O)C(CC(C)C)N(C)C(=O)C(C)NC(=O)C(C)NC(=O)C(CC(C)C)N(C)C(=O)C(C(C)C)NC(=O)C(CC(C)C)N(C)C(=O)CN(C)C1=O (centres unmarked) [Compound 91B-s],1 to 100 µM
7,CCC1NC(=O)C(C2OC(SC(C)c3cc(Cl)cc(Cl)c3)CC2C)N(C)C(=O)C(C(C)C)N(C)C(=O)C(CC(C)C)N(C)C(=O)C(CC(C)C)N(C)C(=O)C(C)NC(=O)C(C)NC(=O)C(CC(C)C)N(C)C(=O)C(C(C)C)NC(=O)C(CC(C)C)N(C)C(=O)CN(C)C1=O (centres unmarked) [Compound 92A-s],1 to 100 µM
8,CCC1NC(=O)C(C2OC(SCc3ccc(Cl)c(Cl)c3)CC2C)N(C)C(=O)C(C(C)C)N(C)C(=O)C(CC(C)C)N(C)C(=O)C(CC(C)C)N(C)C(=O)C(C)NC(=O)C(C)NC(=O)C(CC(C)C)N(C)C(=O)C(C(C)C)NC(=O)C(CC(C)C)N(C)C(=O)CN(C)C1=O (centres unmarked) [Compound 94A-s],1 to 100 µM
9,CCC1NC(=O)C(C2OC(SCc3cccc(N4CCOCC4)c3)CC2C)N(C)C(=O)C(C(C)C)N(C)C(=O)C(CC(C)C)N(C)C(=O)C(CC(C)C)N(C)C(=O)C(C)NC(=O)C(C)NC(=O)C(CC(C)C)N(C)C(=O)C(C(C)C)NC(=O)C(CC(C)C)N(C)C(=O)CN(C)C1=O (centres unmarked) [Compound 95-s],1 to 100 µM
10,CCC1NC(=O)C(C2OC(OCc3cccc(N4CCOCC4)c3)CC2C)N(C)C(=O)C(C(C)C)N(C)C(=O)C(CC(C)C)N(C)C(=O)C(CC(C)C)N(C)C(=O)C(C)NC(=O)C(C)NC(=O)C(CC(C)C)N(C)C(=O)C(C(C)C)NC(=O)C(CC(C)C)N(C)C(=O)CN(C)C1=O (centres unmarked) [Compound 95],1 to 100 µM
11,CCC1NC(=O)C(C2OC(SC(C)c3ccc(Cl)c(Cl)c3)CC2C)N(C)C(=O)C(C(C)C)N(C)C(=O)C(CC(C)C)N(C)C(=O)C(CC(C)C)N(C)C(=O)C(C)NC(=O)C(C)NC(=O)C(CC(C)C)N(C)C(=O)C(C(C)C)NC(=O)C(CC(C)C)N(C)C(=O)CN(C)C1=O (centres unmarked) [Compound 96A-s],1 to 100 µM
12,CCC1NC(=O)C(C2OC(SCc3cc(Cl)ccc3Cl)CC2C)N(C)C(=O)C(C(C)C)N(C)C(=O)C(CC(C)C)N(C)C(=O)C(CC(C)C)N(C)C(=O)C(C)NC(=O)C(C)NC(=O)C(CC(C)C)N(C)C(=O)C(C(C)C)NC(=O)C(CC(C)C)N(C)C(=O)CN(C)C1=O (centres unmarked) [Compound 98A-s],1 to 100 µM

# Same assay, conditions: IC50, given as a range; assay not given
row,Structure (SMILES),IC50
1,CCC1NC(=O)C(C2OC(SCc3cccc(Cl)c3)CC2C)N(C)C(=O)C(C(C)C)N(C)C(=O)C(CC(C)C)N(C)C(=O)C(CC(C)C)N(C)C(=O)C(C)NC(=O)C(C)NC(=O)C(CC(C)C)N(C)C(=O)C(C(C)C)NC(=O)C(CC(C)C)N(C)C(=O)CN(C)C1=O (centres unmarked) [Compound 85A-s],1 to 100 µM
2,CCC1NC(=O)C(C2OC(SCc3ccc(Cl)cc3)CC2C)N(C)C(=O)C(C(C)C)N(C)C(=O)C(CC(C)C)N(C)C(=O)C(CC(C)C)N(C)C(=O)C(C)NC(=O)C(C)NC(=O)C(CC(C)C)N(C)C(=O)C(C(C)C)NC(=O)C(CC(C)C)N(C)C(=O)CN(C)C1=O (centres unmarked) [Compound 86A-s],1 to 100 µM
3,"CCC1NC(=O)C(C2OC(OCc3ccc(OCCN(C)C)cc3)CC2C)N(C)C(=O)C(C(C)C)N(C)C(=O)C(CC(C)C)N(C)C(=O)C(CC(C)C)N(C)C(=O)C(C)NC(=O)C(C)NC(=O)C(CC(C)C)N(C)C(=O)C(C(C)C)NC(=O)C(CC(C)C)N(C)C(=O)CN(C)C1=O [Compound 87A, [2-((2R,3R)-5-(4-(2-(dimethylamino)ethoxy)benzyloxy)-3-methyltetrahydrofuran-2-yl)-2-(methylamino)acetic acid]^1-cyclosporin A]",1 to 10 µM

# Same assay, conditions: given as a range; assay not given
row,Structure (SMILES),IC50
1,"CCC1NC(=O)C(C2OC(OCc3ccccc3Cl)CC2C)N(C)C(=O)C(C(C)C)N(C)C(=O)C(CC(C)C)N(C)C(=O)C(CC(C)C)N(C)C(=O)C(C)NC(=O)C(C)NC(=O)C(CC(C)C)N(C)C(=O)C(C(C)C)NC(=O)C(CC(C)C)N(C)C(=O)CN(C)C1=O [Compound 84A, [2-((2R,3R)-5-(2-chlorobenzyloxy)-3-methyltetrahydrofuran-2-yl)-2-(methylamino)acetic acid]^1-cyclosporin A]",0.001 to 1 µM
2,"CCC1NC(=O)C(C2OC(OCc3ccc(Cl)cc3)CC2C)N(C)C(=O)C(C(C)C)N(C)C(=O)C(CC(C)C)N(C)C(=O)C(CC(C)C)N(C)C(=O)C(C)NC(=O)C(C)NC(=O)C(CC(C)C)N(C)C(=O)C(C(C)C)NC(=O)C(CC(C)C)N(C)C(=O)CN(C)C1=O [Compound 86A, [2-((2R,3R)-5-(4-chlorobenzyloxy)-3-methyltetrahydrofuran-2-yl)-2-(methylamino)acetic acid]^1-cyclosporin A]",0.001 to 1 µM
3,"CCC1NC(=O)C(C2OC(SCc3cc(Cl)cc(Cl)c3)CC2C)N(C)C(=O)C(C(C)C)N(C)C(=O)C(CC(C)C)N(C)C(=O)C(CC(C)C)N(C)C(=O)C(C)NC(=O)C(C)NC(=O)C(CC(C)C)N(C)C(=O)C(C(C)C)NC(=O)C(CC(C)C)N(C)C(=O)CN(C)C1=O [Compound 91A-s, [2-((2R,3R)-5-(3,5-dichlorobenzylthio)-3-methyltetrahydrofuran-2-yl)-2-(methylamino)acetic acid]^1-cyclosporin A]",0.001 to 1 µM
4,"CCC1NC(=O)C(C2OC(OCc3cc(Cl)cc(Cl)c3)CC2C)N(C)C(=O)C(C(C)C)N(C)C(=O)C(CC(C)C)N(C)C(=O)C(CC(C)C)N(C)C(=O)C(C)NC(=O)C(C)NC(=O)C(CC(C)C)N(C)C(=O)C(C(C)C)NC(=O)C(CC(C)C)N(C)C(=O)CN(C)C1=O [Compound 91B, [2-((2R,3R)-5-(3,5-dichlorobenzyloxy)-3-methyltetrahydrofuran-2-yl)-2-(methylamino)acetic acid]^1-cyclosporin A]",0.001 to 1 µM
5,"CCC1NC(=O)C(C2OC(OC(C)c3cc(Cl)cc(Cl)c3)CC2C)N(C)C(=O)C(C(C)C)N(C)C(=O)C(CC(C)C)N(C)C(=O)C(CC(C)C)N(C)C(=O)C(C)NC(=O)C(C)NC(=O)C(CC(C)C)N(C)C(=O)C(C(C)C)NC(=O)C(CC(C)C)N(C)C(=O)CN(C)C1=O [Compound 92A, [2-((2R,3R)-5-((S)-1-(3,5-dichlorophenyl)ethoxy)-3-methyltetrahydrofuran-2-yl)-2-(methylamino)acetic acid]^1-cyclosporin A]",0.001 to 1 µM
6,"CCC1NC(=O)C(C2OC(OCc3ccc(Cl)c(Cl)c3)CC2C)N(C)C(=O)C(C(C)C)N(C)C(=O)C(CC(C)C)N(C)C(=O)C(CC(C)C)N(C)C(=O)C(C)NC(=O)C(C)NC(=O)C(CC(C)C)N(C)C(=O)C(C(C)C)NC(=O)C(CC(C)C)N(C)C(=O)CN(C)C1=O [Compound 94B, [2-((2R,3R)-5-(3,4-dichlorobenzyloxy)-3-methyltetrahydrofuran-2-yl)-2-(methylamino)acetic acid]^1-cyclosporin A]",0.001 to 1 µM

# Same assay, conditions: given as a range; assay not given; read-out: IC50
row,Structure (SMILES),IC50
1,"CC[C@@H]1NC(=O)[C@H]([C@@H]2OC(OCc3cccc(Cl)c3)C[C@H]2C)N(C)C(=O)[C@H](C(C)C)N(C)C(=O)[C@H](CC(C)C)N(C)C(=O)[C@H](CC(C)C)N(C)C(=O)[C@@H](C)NC(=O)[C@H](C)NC(=O)[C@H](CC(C)C)N(C)C(=O)[C@H](C(C)C)NC(=O)[C@H](CC(C)C)N(C)C(=O)CN(C)C1=O (stereo partly drawn) [Compound 85A, [2-((2R,3R)-5-(3-chlorobenzyloxy)-3-methyltetrahydrofuran-2-yl)-2-(methylamino)acetic acid]^1-cyclosporin A]",0.001 to 1 µM
2,"CC[C@@H]1NC(=O)[C@H]([C@@H]2OC(OCc3cc(Cl)cc(Cl)c3)C[C@H]2C)N(C)C(=O)[C@H](C(C)C)N(C)C(=O)[C@H](CC(C)C)N(C)C(=O)[C@H](CC(C)C)N(C)C(=O)[C@@H](C)NC(=O)[C@H](C)NC(=O)[C@H](CC(C)C)N(C)C(=O)[C@H](C(C)C)NC(=O)[C@H](CC(C)C)N(C)C(=O)CN(C)C1=O (stereo partly drawn) [Compound 91A, [2-((2R,3R)-5-(3,5-dichlorobenzyloxy)-3-methyltetrahydrofuran-2-yl)-2-(methylamino)acetic acid]^1-cyclosporin A]",0.001 to 1 µM

# From US10961231B2, “NTCP inhibitors” (National Institute of Biological Sciences, Beijing, priority 2018, dated 2021)
